# Reference: US7521533B2, “Tryptase polypeptide and uses thereof” (priority 2002, dated 2009)
# Entries after “also recorded” stand apart in the source; their conditions may differ.
# Assay: Cleavage of trypsin-susceptible pNA chromogenic substrate, reverse-phase HPLC
# Format: biochemical
# Settings: for ability to cleave D-Ile-Phe-Lys pNA / ability to cleave N-Benzoyl-Pro-Phe-Arg-pNA / ability to cleave N-p-Tosyl-Gly-Pro-Lys 4-pNA: ~2 μg enzyme, 10 μg substrate, 37° C. 2 hrs, 100 mM HEPES pH7.5 10% glycerol, no exogenous heparin
# Experimental: The enzymatic activity of recombinant δ tryptase was evaluated by testing its ability to cleave a panel of three trypsin-susceptible p-nitroanilide (pNA) chromogenic substrates; N-Benzoyl-Pro-Phe-Arg-pNA, D-Ile-Phe-Lys pNA, and N-p-Tosyl-Gly-Pro-Lys 4-pNA (Sigma-Adrich, St Louis, Mo.) and was compared to that of rαII tryptase, and commercially available native human lung tryptase (ICN, Costa Mesa, Calif.) and recombinant human lung βII tryptase (Promega, Madison, Wis.). Pro-δ tryptase (ie prior to removal of the EK susceptible activation peptide), recombinant EK alone, and buffer alone acted as negative controls. Approximately equal amounts (˜2 μg) of the enzymes were incubated with each substrate (10 μg) at 37° C. for 2 hrs, in 100 mM HEPES pH7.5 10% glycerol (total reaction volume=50 μl), and then analysed by HPLC using a reverse-phase column (4.6×50 […] RP18 Xterra, Waters, Bedford, Mass.). In this initial investigation no exogenous heparin was added. Substrate cleavage was determined by the detection of new peaks representing the separated peptide and nitroanilide moieties. The amount of substrate cleaved was estimated by measuring the area under the HPLC peak that corresponded to the liberated peptide moiety using Delta T Scan software version 2.04 (Delta T Devices Ltd, Cambridge, UK). The retention time of the liberated nitroanilide was constant and was experimentally determined to be 2.67 mins.
substance,measurement,setting,value
rβII tryptase: Commercially available recombinant human lung βII tryptase (Promega) [reference compound],ability to cleave D-Ile-Phe-Lys pNA,,cleave all three substrates
same,ability to cleave N-Benzoyl-Pro-Phe-Arg-pNA,,cleave all three substrates
same,ability to cleave N-p-Tosyl-Gly-Pro-Lys 4-pNA,,cleave all three substrates
"rδ tryptase: Recombinant human δ tryptase expressed in bacterial cells, refolded, mature form generated by enterokinase cleavage","amount of D-Ile-Phe-Lys pNA substrate cleaved, as much as that cleaved by rβII tryptase","area under HPLC peak of liberated peptide moiety, relative to rβII tryptase",approximately 12%
same,ability to cleave D-Ile-Phe-Lys pNA,,able to cleave; also recorded: cleaves
same,ability to cleave N-Benzoyl-Pro-Phe-Arg-pNA,,ineffective
same,ability to cleave N-p-Tosyl-Gly-Pro-Lys 4-pNA,,ineffective
pro-rδ tryptase: Recombinant δ tryptase prior to removal of the EK susceptible activation peptide; negative control,ability to cleave D-Ile-Phe-Lys pNA,,No substrate cleavage was detected
